Data: patent US8309721B2, “HSP90 inhibitory carbazole derivatives, compositions containing same and use thereof” (Sanofi, priority 2008, dated 2012)
Counter-ions that a name gives are not always drawn. Like-named read-outs stand apart in the source and are kept apart here.

Legend:
Hsp82 = Hsp82 (Saccharomyces cerevisiae, UniProt P02829); test: Hsp82/ATPase test (malachite green or PK/LDH coupled method); format: biochemical
Method: The biochemical activity of the compounds can in particular be evaluated by means of the “Hsp82/ATPase” test described below: The inorganic phosphate released during the hydrolysis of ATP by the ATPase activity of Hsp82 is quantified by the malachite green method. In the presence of this reagent, formation of the inorganic phosphate-molybdate-malachite green complex, which absorbs at a wavelength of 620 nm, occurs. The products to be evaluated are incubated in a reaction volume of 30 μl, in the presence of 1 μM Hsp82 and of 250 μM of substrate (ATP) in a buffer composed of 50 mM Hepes-NaOH (pH 7.5), 1 mM DTT, 5 mM MgCl2 and 50 mM KCl at 37° C. for 60 min. In parallel, an inorganic phosphate range of between 1 and 40 μM is made up in the same buffer. […] After incubation at ambient temperature for 20 min, the absorbance of the various wells is measured using a microplate reader at 620 nm. The inorganic phosphate concentration of each sample is then calculated from the standard curve. The ATPase activity of Hsp82 is expressed as concentration of inorganic phosphate produced in 60 minutes. The effect of the various products tested is expressed as percentage inhibition of the ATPase activity. The formation of ADP due to the ATPase activity of Hsp82 was used to develop another method for evaluating the enzyme activity of this enzyme by application of an enzymatic coupling system involving pyruvate kinase (PK) and lactate dehydrogenase (LDH). In this kinetic-type spectrophotometric method, PK catalyses the formation of ATP and of pyruvate from phosphoenol pyruvate (PEP) and the ADP produced by Hsp82. The pyruvate formed, which is a substrate for LDH, is subsequently converted to lactate in the presence of NADH. In this case, the decrease in the NADH concentration, measured through the decrease in absorbance at the wavelength of 340 nm, is proportional to the concentration of ADP produced by Hsp82. The products tested are incubated in a reaction volume of 100 μl of buffer composed of 100 mM Hepes-NaOH (pH 7.5), 5 mM MgCl2, 1 mM DTT, 150 mM KCl, 0.3 mM NADH, 2.5 mM PEP and 250 μM ATP. This mixture is preincubated at 37° C. for 30 minutes before the addition of 3.77 units of LDH and 3.77 units of PK. The reaction is initiated by addition of the product to be evaluated, in varying concentrations, and of Hsp82, at the concentration of 1 μM. The enzymatic activity of Hsp82 is then measured continuously, in a microplate reader, at 37° C., at the wavelength of 340 nm. The initial rate of the reaction is obtained by measuring the slope of the tangent to the origin of the curve recorded. The enzymatic activity is expressed in μM of ADP formed per minute. The effect of the various products tested is expressed as percentage inhibition of the ATPase activity according to the codification below: […]

[1] = system: Her2 receptor expression at the surface of SKBr3 cells; test: phenotypic SKBr3/HER2 cell test (Her2 surface expression by flow cytometry); format: cell-based; details: Homo sapiens, SK-BR-3, 24 h incubation, inhibition of Her2 expression
Method: The cellular activity of the compounds can in particular be evaluated by means of the phenotypic “SKBr3/HER2” cell test described below:
The SKBr3 […] adenocarcinoma cells, overexpressing the Her2 tyrosine kinase receptor, originate from the ATCC (HTB-30) and are cultured in McCoy's 5A medium supplemented with 10% FBS and 1% L-glutamine.
The cells are seeded in 12-well plates at a proportion of 125 000 cells per well in 1 ml of complete medium. The following day, the products are added at varying concentrations. After incubation for 24 h, the cells are trypsinized, washed with PBS and incubated with 100 ng of anti-Her2 antibody coupled to PE (Phycoerythrin) (BD 340552) for 30 minutes at 4° C. in the dark. The fluorescence due to the expression of the Her2 receptor at the surface of the cells is then read using a FACS Calibur flow cytometer (Becton-Dickinson). The percentage inhibition of Her2 expression as a function of the concentrations of product tested is fitted by the nonlinear regression technique (XLfit, equation 205) in order to measure an IC50 for each product.

[2] = 1 μM Hsp82, 250 μM ATP, 37° C., read-out: Hsp82 ATPase IC50

Hsp82, sequence (P02829 whole entry): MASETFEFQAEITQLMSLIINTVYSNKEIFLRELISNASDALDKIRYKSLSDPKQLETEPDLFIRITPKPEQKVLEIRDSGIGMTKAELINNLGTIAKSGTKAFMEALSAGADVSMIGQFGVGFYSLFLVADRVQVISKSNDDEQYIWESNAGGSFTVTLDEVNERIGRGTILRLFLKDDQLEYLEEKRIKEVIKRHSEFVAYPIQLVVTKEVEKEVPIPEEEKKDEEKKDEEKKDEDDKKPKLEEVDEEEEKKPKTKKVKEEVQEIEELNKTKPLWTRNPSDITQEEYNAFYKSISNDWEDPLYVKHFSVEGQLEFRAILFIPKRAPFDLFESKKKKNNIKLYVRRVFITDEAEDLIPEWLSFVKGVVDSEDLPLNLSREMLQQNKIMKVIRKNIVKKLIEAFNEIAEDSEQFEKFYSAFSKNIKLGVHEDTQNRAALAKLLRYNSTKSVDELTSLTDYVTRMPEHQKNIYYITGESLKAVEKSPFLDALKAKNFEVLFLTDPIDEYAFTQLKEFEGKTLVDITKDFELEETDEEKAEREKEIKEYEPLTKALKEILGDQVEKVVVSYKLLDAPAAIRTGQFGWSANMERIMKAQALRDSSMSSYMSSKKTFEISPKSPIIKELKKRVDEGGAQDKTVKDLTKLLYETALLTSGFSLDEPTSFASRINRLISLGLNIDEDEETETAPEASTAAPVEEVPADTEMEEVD

Structure (SMILES) | IC50 (Hsp82; [2]) [nM] | IC50 [1] [nM] | IC50 (Hsp82) [nM]
CC(C)(C)OC(=O)NCC(=O)O[C@H]1CC[C@H](Nc2cc(-n3c4ccccc4c4c(-c5nc6ccc(F)cc6[nH]5)cccc43)ccc2C(N)=O)CC1 [Example 21, tert-butoxycarbonylaminoacetic acid 4-trans-{2-carbamoyl-5-[4-(6-fluoro-1H-benzimidazol-2-yl)-9H-carbazol-9-yl]phenylamino}cyclohexyl ester] | 1000 to 10000 | < 1000 | 
CN1C2CCC1CC(Nc1cc(-n3c4ccccc4c4c(-c5cnc6ccccc6c5)cccc43)ccc1C(N)=O)C2 (stereo not drawn) [Example 138, 2-(8-methyl-8-azabicyclo[3.2.1]oct-3-yl)amino-4-[4-(quinolin-3-yl)-9H-carbazol-9-yl]benzamide] |  | < 1000 | < 1000
NCC(=O)O[C@H]1CC[C@H](Nc2cc(-n3c4ccccc4c4c(-c5nc6ccc(F)cc6[nH]5)cccc43)ccc2C(N)=O)CC1 [Example 25, trifluoroacetate of the 4-trans-{2-carbamoyl-5-[4-(6-fluoro-1H-benzimidazol-2-yl)-9H-carbazol-9-yl]phenylamino}cyclohexyl ester of aminoacetic acid] | 1000 to 10000 | < 1000 | 
NC(=O)c1ccc(-n2c3ccccc3c3c(-c4nc5ccc(F)cc5[nH]4)cccc32)cc1NCc1ccn[nH]1 [Example 51, 4-[4-(6-fluoro-1H-benzimidazol-2-yl)-9H-carbazol-9-yl]-2-[(2H-pyrazol-3-ylmethyl)amino]benzamide] | 1000 to 10000 | < 1000 | 
CNC(=O)CNc1cc(-n2c3ccccc3c3c(-c4nc5ccc(F)cc5[nH]4)cccc32)ccc1C(N)=O [Example 44, 4-[4-(6-fluoro-1H-benzimidazol-2-yl)-9H-carbazol-9-yl]-2-(methylcarbamoylmethylamino)benzamide] | 1000 to 10000 | < 1000 | 
Nc1nn(CCO)c2cc(-n3c4ccccc4c4c(-c5nc6ccc(F)cc6[nH]5)cccc43)ccc12 [Example 16, 2-{3-amino-6-[4-(6-fluoro-1H-benzimidazol-2-yl)-9H-carbazol-9-yl]indazol-1-yl}ethanol] | 1000 to 10000 | 1000 to 10000 | 
NC(=O)c1ccc(-n2c3ccccc3c3c(-c4cnc(N)nc4)cccc32)cc1NCCCO [Example 56, 4-[4-(2-aminopyrimidin-5-yl)-9H-carbazol-9-yl]-2-[(3-hydroxypropyl)amino]benzamide hydrochloride] | < 1000 |  | 
NC(=O)c1ccc(-n2c3ccccc3c3c(-c4nc5ccc(F)cc5[nH]4)cccc32)cc1NCc1ccoc1 [Example 50, 4-[4-(6-fluoro-1H-benzimidazol-2-yl)-9H-carbazol-9-yl]-2-[(furan-3-ylmethyl)amino]benzamide] | 1000 to 10000 | < 1000 | 
NCCCC[C@@H](N)C(=O)O[C@H]1CC[C@H](Nc2cc(-n3c4ccccc4c4c(-c5nc6ccc(F)cc6[nH]5)cccc43)ccc2C(N)=O)CC1 (stereo in doubt) [Example 36, trifluoroacetate of the 4-trans-{2-carbamoyl-5-[4(6-fluoro-1H-benzimidazol-2-yl)-9H-carbazol-9-yl]phenylamino}cyclohexyl ester of (S)-2,6-diaminohexanoic acid] | < 1000 | < 1000 | 
NC(=O)CCNc1cc(-n2c3ccccc3c3c(-c4nc5ccc(F)cc5[nH]4)cccc32)ccc1C(N)=O [Example 47, 2-(2-carbamoylethylamino)-4-[4-(6-fluoro-1H-benzimidazol-2-yl)-9H-carbazol-9-yl]benzamide] | < 1000 | < 1000 | 
COC[C@H](C)Nc1cc(-n2c3ccccc3c3c(-c4nc5ccc(F)cc5[nH]4)cccc32)ccc1C(N)=O [Example 54] | < 1000 | < 1000 | 
CC(CCO)Nc1cc(-n2c3ccccc3c3c(-c4nc5ccc(F)cc5[nH]4)cccc32)ccc1C(N)=O (racemic) [Example 39] | < 1000 | < 1000 | 
NC(=O)c1ccc(-n2c3ccccc3c3c(-c4nc5ccc(F)cc5[nH]4)cccc32)cc1NCCOCCO [Example 7, 4-[4-(6-fluoro-1H-benzimidazol-2-yl)-9H-carbazol-9-yl]-2-[2-(2-hydroxyethoxy)ethylamino]benzamide] | < 1000 | < 1000 | 
CC(CCO)Nc1cc(-n2c3ccccc3c3c(-c4cnc5ccccc5c4)cccc32)ccc1C(N)=O (racemic) [Example 41, 2-[1-hydroxybutan-3(R,S)-ylamino]-4-[4-(quinolin-3-yl)-9H-carbazol-9-yl]benzamide] | < 1000 | < 1000 | 

Continued, in another order:

IC50 (Hsp82; [2]) [nM] | IC50 [1] [nM] | Structure (SMILES) | IC50 (Hsp82) [nM]
< 1000 | < 1000 | NC(=O)c1ccc(-n2c3ccccc3c3c(-c4nc5ccc(F)cc5[nH]4)cccc32)cc1NC1CCOCC1 [Example 59, 4-[4-(6-fluoro-1H-benzimidazol-2-yl)-9H-carbazol-9-yl]-2-(tetrahydropyran-4-ylamino)benzamide] | 
< 1000 | < 1000 | COCCCNc1cc(-n2c3ccccc3c3c(-c4cnc5ccccc5c4)cccc32)ccc1C(N)=O [Example 33, 2-(3-methoxypropyl)amino-4-[4-(quinolin-3-yl)-9H-carbazol-9-yl]benzamide] | 
< 1000 | < 1000 | C[C@H](N)C(=O)O[C@H]1CC[C@H](Nc2cc(-n3c4ccccc4c4c(-c5nc6ccc(F)cc6[nH]5)cccc43)ccc2C(N)=O)CC1 [Example 26, trifluoroacetate of the 4-trans-{2-carbamoyl-5-[4-(6-fluoro-1H-benzimidazol-2-yl)-9H-carbazol-9-yl]phenylamino}cyclohexyl ester of 2(S)-aminopropionic acid] | 
< 1000 | < 1000 | NC(=O)CCNc1cc(-n2c3ccccc3c3c(-c4cnc5ccccc5c4)cccc32)ccc1C(N)=O [Example 34, 2-(2-carbamoylethylamino)-4-[4-(quinolin-3-yl)-9H-carbazol-9-yl]benzamide] | 
< 1000 | < 1000 | NC(=O)c1ncc(-n2c3ccccc3c3c(-c4cnc5ccccc5c4)cccc32)cc1N[C@H]1CC[C@H](O)CC1 [Example 58, 3-(4-trans-hydroxycyclohexylamino)-5-[(4-quinolin-3-yl)-9H-carbazol-9-yl]pyridine-2-carboxamide] | 
< 1000 | < 1000 | CN1CCC(O)(CCNc2cc(-n3c4ccccc4c4c(-c5cnc6ccccc6c5)cccc43)ccc2C(N)=O)CC1 [Example 65, 2-[2-(4-hydroxy-1-methylpiperidin-4-yl)ethylamino]-4-[4-(quinolin-3-yl)-9H-carbazol-9-yl]benzamide] | 
< 1000 | < 1000 | NC(=O)c1ccc(-n2c3ccccc3c3c(-c4cnc(N)nc4)cccc32)cc1N[C@H]1CC[C@H](O)CC1 [Example 55, 4-[4-(2-aminopyrimidin-5-yl)-9H-carbazol-9-yl]-2-[(4-trans-hydroxycyclohexyl)amino]benzamide hydrochloride] | 
< 1000 | < 1000 | NC(=O)c1ccc(-n2c3ccccc3c3c(-c4cnc5ccccc5c4)cccc32)cc1NCCCO [Example 31, 2-(3-hydroxypropyl)amino-4-[4-(quinolin-3-yl)-9H-carbazol-9-yl]benzamide] | 
< 1000 | 1000 to 10000 | NC(=O)c1ccc(-n2c3ccccc3c3c(-c4nc5cc(F)ccc5[nH]4)cccc32)cc1N [Example 10, 2-amino-4-[4-(6-fluoro-1H-benzimidazol-2-yl)-9H-carbazol-9-yl]benzamide] | 
